Results reported in patent US7326700B2, “Cyclohexenyl phenyl carboxamides tocolytic oxytocin receptor antagonists” (Wyeth, priority 2001, dated 2008).
pIC50: −log10 of the molar value.

Target: T1, human vasopressin V1a receptor subtype (Homo sapiens, UniProt P37288)
T1 construct: host or cells: CHO cells, stably transfected (pZeoSV vector for the Thibonnier line)
Test: Vasopressin binding in CHO cell membranes expressing human vasopressin V1a subtype receptors ([3H]Manning ligand radioligand binding)
Conditions: 100 nM
Text: Chinese hamster ovary cells (CHO cells) stably transfected with the human vasopressin V1a subtype receptors were either obtained from Biosignal Inc., 1744 rue Williams, Montreal, Quebec, Canada or obtained from M. Thibonnier, Case Western Reserve University School of Medicine, Cleveland, Ohio.
CHO cells transfected with the human vasopressin V1a subtype receptors obtained from M. Thibonnier (pZeoSV vector) are allowed to grow to confluency (approx. >90%) in T-150 flasks under sterile conditions, in a cell culture medium consisting of F-12 Nutrient Mixture (HAM) with L-glutamine (Gibco Cat. #11765-054) containing 15 mM HEPES (Gibco Cat. #15630-080), 1% antibiotic/antimycotic (add 5 mL 100×, Gibco Cat. #15240-062 per 500 mL F-12), 250 μg/mL Zeocin (add 1.25 mL of 100 mg/mL Invitrogen R-250-01 per 500 mL F-12) and 10% Fetal Bovine Serum (Qualified, heat inactivated, Gibco Cat. #16140-063). The medium is removed by aspiration and the cells are washed with 10 mL of Hank's Balanced Salt solution (Gibco Cat. #14175-095). The salt solution is removed by aspiration and the cells are trypsinized with 5 mL of trypsin-EDTA (0.05% trypsin, 0.53 mM EDTA-4Na, Gibco Cat. #25300-070) for 1 min. The trypsin is removed by aspiration and the cells dislodged by tapping. Cell Culture medium (eg, 30 mL for 1:30 split) is immediately added and mixed well to inactivate trypsin. 1 mL of detached cells is added to new culture flasks containing fresh cell culture medium (eg, into 25 mL per T-150 flask), and mixed gently. The cells are incubated at 37° C. in 5% CO2. The medium is changed at 3 to 4 days interval (or as appropriate). The cells grow to confluency (approx. >75%-95%) within 7-8 days. All steps are done under sterile conditions.
The cells are washed twice gently with Hank's Balanced Salt solution (e.g,. use 10 mL per T-150 flask). The excess is removed and the cells are bathed for 15-30 min. in an enzyme-free Cell Dissociation Buffer (e.g. use 8 mL Hank's Based, Gibco Cat. #13150-016 per T-150 flask) until the cells are loosened. The contents are transferred to centrifuge tubes (50 mL) kept in an ice bath. All subsequent steps are done at 4° C. The tubes are centrifuged at 300×g for 15 min (1380 rpm on SORVAL, Model RT6000D, using the rotor for 50 mL tubes). The supernatant is discarded and the cells suspended in homogeneizing buffer (10 mM Tris-HCl containing 0.25 M sucrose and 1 mM EDTA, pH 7.4) ensuring that the volume of the buffer is about ten times the volume of the cell pellet. The cells are pooled into a centrifuge tube (50 mL) and homogenized with Polytron at setting 6 for 10 sec. The homogenate is transferred into a Potter-Elvjehm homogenizer and homogenized with 3 strokes. The homogenate is centrifuged at 1500×g for 10 min at 4° C. (3100 rpm using SORVAL, model RT6000D, using the rotor for 50 mL tubes). The pellet is discarded. The supernatant is centrifuged at 100,000×g for 60 min. at 4° C. (Beckman L8-80M ultracentrifuge; spin at 37,500 rpm with rotor type 70 Ti for 50 mL tubes; 38,000 rpm with type 80Ti for 15 mL tubes; or 35,800 rpm with rotor type 45Ti). The supernantant is discarded and the pellet suspended in 3 to 4 mL of Tris buffer (50 mM TRIS-HCl, pH 7.4). The protein content is estimated by the Bradford or Lowry method. The volume of the membrane suspension is adjusted with the membrane buffer (50 mM Tris-HCl containing 0.1% BSA and 0.1 mM PMSF) to give 3.0 mg/mL (or as appropriate) of protein. The membranes are aliquoted and stored at −70° C.
In wells of a 96-well format microtiter plate, is added 90, 110 or 130 μL (to make up a final volume of 200 μL) of assay buffer containing 50 mM of Tris-HCl (pH 7.4), BSA (heat inactivated, protease-free), […], 1 mg % aprotinin, 1 mg % leupeptin, 2 mg % 1,10-phenanthroline, 10 mg % trypsin inhibitor, and 0.1 mM PMSF. The inhibitors are added on the day of the experiment. […]

T1 sequence (P37288 whole entry): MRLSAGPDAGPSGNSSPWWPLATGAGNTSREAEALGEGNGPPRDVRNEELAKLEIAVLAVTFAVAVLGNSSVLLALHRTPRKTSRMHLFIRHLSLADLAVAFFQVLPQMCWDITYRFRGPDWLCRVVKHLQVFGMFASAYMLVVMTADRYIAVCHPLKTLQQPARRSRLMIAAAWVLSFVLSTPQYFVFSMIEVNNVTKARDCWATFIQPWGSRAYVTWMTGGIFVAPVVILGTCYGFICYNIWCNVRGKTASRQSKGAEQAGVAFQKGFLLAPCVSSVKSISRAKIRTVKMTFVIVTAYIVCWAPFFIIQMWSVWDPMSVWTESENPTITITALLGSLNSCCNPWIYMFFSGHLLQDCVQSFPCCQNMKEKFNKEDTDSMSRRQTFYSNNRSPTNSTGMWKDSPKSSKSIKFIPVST

Compound | V1a % inhibition @ 100 nM [%]
Cc1cc(C(=O)N2Cc3ccc(C(=O)N4CCN(CCN(C)C)CC4)n3Cc3ccccc32)ccc1C1=CCCCC1 [Example 22, {10-[4-(1-Cyclohex-1-en-1-yl)-3-methylbenzoyl]-10,11-dihydro-5H-pyrrolo[2,1-c][1,4]benzodiazepin-3-yl}{4-[2-(dimethylamino)ethyl]-1-piperazinyl}methanone] | 34
Cc1cc(C(=O)N2Cc3ccc(C(=O)N4CCN(CCN5CCOCC5)CC4)n3Cc3ccccc32)ccc1C1=CCCCC1 [Example 23, {10-[4-(1-Cyclohex-1-en-1-yl)-3-methylbenzoyl]-10,11-dihydro-5H-pyrrolo[2,1-c][1,4]benzodiazepin-3-yl}{4-[2-(4-morpholinyl)ethyl]-1-piperazinyl}methanone] | 27
C=CCN1CCN(C(=O)c2ccc3n2Cc2ccccc2N(C(=O)c2ccc(C4=CCCCC4)c(C)c2)C3)CC1 [Example 24, (4-Allyl-1-piperazinyl){10-[4-(1-cyclohex-1-en-1-yl)-3-methylbenzoyl]-10,11-dihydro-5H-pyrrolo[2,1-c][1,4]benzodiazepin-3-yl}methanone] | 12

Results, then the compound that gave them:

V1a % inhibition @ 100 nM [%] | Compound
24 | Cc1cc(C(=O)N2Cc3ccc(C(=O)N4CCN(C(C)C)CC4)n3Cc3ccccc32)ccc1C1=CCCCC1 [Example 25, {10-[4-(1-Cyclohex-1-en-1-yl)-3-methylbenzoyl]-1 0,11-dihydro-5H-pyrrolo[2,1-c][1,4]benzodiazepin-3-yl}(4-isopropyl-1-piperazinyl)methanone]
38 | Cc1cc(C(=O)N2Cc3ccc(C(=O)N4CCC[C@H]4CN4CCCC4)n3Cc3ccccc32)ccc1C1=CCCCC1 [Example 26, {10-[4-(1-Cyclohex-1-en-1-yl)-3-methylbenzoyl]-10,11-dihydro-5H-pyrrolo[2,1-c][1,4]benzodiazepin-3-yl}[(2S)-2-(1-pyrrolidinylmethyl)pyrrolidinyl]methanone]
62 | Cc1cc(C(=O)N2Cc3ccc(C(=O)N4CC[C@@H](N(C)C)C4)n3Cc3ccccc32)ccc1C1=CCCCC1 [Example 27, {10-[4-(1-Cyclohex-1-en-1-yl)-3-methylbenzoyl]-10,11-dihydro-5H-pyrrolo[2,1-c][1,4]benzodiazepin-3-yl}[(3R)-3-(dimethylamino)pyrrolidinyl]methanone]

Same assay, conditions: value in parentheses

Compound | pIC50
{10-[4-(1-Cyclohexen-1-yl)-3-methylbenzoyl]-10,11-dihydro-5H-pyrrolo[2,1-c][1,4]benzodiazepin-3-yl}(4-methyl-piperazin-1-yl)methanone [Example 12] | 6.38
